Measured values: US20220289794A1, “SYNTHETIC ANTIMICROBIAL PEPTIDES” (priority 2019, published 2022)
≈ marks a conversion by molar mass, not a printed value. Like-named read-outs stand apart in the source and are kept apart here. Non-standard residues stand in square brackets, D forms with d. Residues, ends and D or L forms follow the SMILES beside them. Dip = N[C@H](C(=O)O)C(c1ccccc1)c1ccccc1

How the values were obtained:
[1] = system: Escherichia coli (ATCC 25922)
B. subtilis (ATCC-6633) = assay: Broad-spectrum activity against Gram-Positive bacteria (MIC); assay type: cell-based; design: unit not given here
[2] = system: Enterococcus faecalis ATCC 29212; details: E. faecalis ATCC 29212
E. coli (ATCC BAA-2452) = assay: Broad-spectrum activity against Gram-Negative bacteria (MIC); assay type: cell-based; details: Table 16, Gram-negative panel
[3] = system: Streptococcus pneumoniae ATCC 51938; details: S. pneumoniae ATCC 51938
[4] = system: P. aeruginosa (ATCC BAA-1744); assay: Broad-spectrum activity against Gram-Negative bacteria (MIC); assay type: cell-based; details: Table 16, Gram-negative panel
B. cereus (ATCC-13061) = assay: Broad-spectrum activity against Gram-Positive bacteria (MIC); assay type: cell-based; design: unit not given here
[5] = system: Pseudomonas aeruginosa (ATCC 27883)
[6] = system: Klebsiella pneumoniae (ATCC BAA-1705); details: Table 16, Gram-negative panel
[7] = system: A. baumannii (ATCC BAA-1605); assay: Broad-spectrum activity against Gram-Negative bacteria (MIC); assay type: cell-based; details: Table 16, Gram-negative panel
[8] = system: Klebsiella pneumoniae ATCC 13883; details: Table 16, Gram-negative panel
[9] = system: P. aeruginosa (ATCC 10145); assay: Broad-spectrum activity against Gram-Negative bacteria (MIC); assay type: cell-based; details: Table 16, Gram-negative panel
[10] = system: Enterococcus faecium ATCC 27270; details: E. faecium ATCC 27270
[11] = system: Methicillin-resistant Staphylococcus aureus MRSA (ATCC BAA-1556)
[12] = system: Enterococcus faecium ATCC 700221; details: E. faecium ATCC 700221
[13] = system: Streptococcus pneumoniae ATCC 49619; details: S. pneumoniae ATCC 49619
human red blood cells = system: human red blood cells; design: unit not given beside the values
[14] = system: Enterococcus faecalis ATCC 51575; details: E. faecalis ATCC 51575

Molecule	Broad-spectrum activity B. subtilis (ATCC-6633) (B. subtilis (ATCC-6633))	Broad-spectrum activity E. faecalis (ATCC 29212) [2]	MIC E. coli (ATCC BAA-2452) (E. coli (ATCC BAA-2452)) [µg/mL]	Broad-spectrum activity S. pneumoniae (ATCC 51938) [3]	MIC P. aeruginosa (ATCC BAA-1744) [4] [µg/mL]	Broad-spectrum activity B. cereus (ATCC-13061) (B. cereus (ATCC-13061))	MIC K. pneumonia (ATCC BAA-1705) [6] [µg/mL]	MIC A. baumannii (ATCC BAA-1605) [7] [µg/mL]	MIC K. pneumonia (ATCC 13883) [8] [µg/mL]	MIC P. aeruginosa (ATCC 10145) [9] [µg/mL]	Broad-spectrum activity E. faecium (ATCC 27270) [10]	Broad-spectrum activity E. faecium (ATCC 700221) [12]	Broad-spectrum activity S. pneumoniae (ATCC 49619) [13]	MIC E. coli ATCC 25922 ([1]; E. coli ATCC 25922) [µg/mL]	Broad-spectrum activity E. faecalis (ATCC 51575) [14]	MIC P. aeruginosa ATCC 27883 ([5]; P. aeruginosa ATCC 27883) [µg/mL]	MIC MRSA ATCC BAA-1556 ([11]; MRSA ATCC BAA-1556) [µg/mL]	MIC S. aureus ATCC 29213 (S. aureus ATCC 29213; S. aureus ATCC 29213) [µg/mL]	other results
N=C(N)NCCC[C@@H]1NC(=O)[C@H](CCCNC(=N)N)NC(=O)[C@H](C(c2ccccc2)c2ccccc2)NC(=O)[C@H](C(c2ccccc2)c2ccccc2)NC(=O)[C@H](CCCNC(=N)N)NC(=O)[C@H](CCCNC(=N)N)NC(=O)[C@H](C(c2ccccc2)c2ccccc2)NC1=O [IFX-017, c[Arg-Arg-Dip-Dip-Arg-Arg-Dip]] (cyclo(R[Dip]RR[Dip][Dip]R))	1.5	12.5	12.5 (≈ 9.66 µM)	12.5	25 (≈ 19.3 µM)	6.2	25 (≈ 19.3 µM)	12.5 (≈ 9.66 µM)	50 (≈ 38.6 µM)	25 (≈ 19.3 µM)	3.1	1.5	50						MIC E. coli ATCC 25922 ([1]; ATCC 25922): >100 µg/mL; MIC P. aeruginosa ATCC 27883 ([5]; ATCC 27883): >100 µg/mL; MIC MRSA ATCC BAA-1556 ([11]; ATCC BAA-1556): 12.5 µg/mL (≈ 9.66 µM); MIC S. aureus ATCC 29213 (S. aureus ATCC 29213; ATCC 29213): 6.2 µg/mL (≈ 4.79 µM); HC50 (human red blood cells): 290
c[Arg-Arg-Arg-Arg-Dip-Dip-dip] [IFX-060]	1.5	3.1	12.5	12.5	12.5	3.1	12.5	6.2	50	25	3.1	1.5	25	6.2	12.5	12.5	1.5	1.5	
c[Arg-Arg-Arg-Arg-Dip-Trp-dip] [IFX-088]	1.5	12.5	12.5	12.5	50	6.2	25	12.5	50	25	3.1	12.5	25	12.5	12.5	12.5	3.1	3.1	
c[Arg-Arg-Arg-Arg-Dip-dip-Dip] [IFX-061]	1.5	6.2	12.5	12.5	12.5	3.1	25	6.2	50	25	3.1	3.1	50	12.5	12.5	12.5	1.5	3.1	
c[Arg-Arg-Arg-Arg-Dip-trp-Dip] [IFX-089]	3.1	12.5	12.5	25	25	12.5	25	12.5	50	25	6.2	12.5	50	12.5	12.5	12.5	3.1	3.1	
